This passage reports IC50 results from PubChem BioAssay AID1850 (Southern Research Specialized Biocontainment Screening …, 2009).

Values joined by “and” are separate entries in the source; they are usually repeats but may differ in a detail not shown here. Identical values can stand only once.

The test system of this assay is Salmonella Typhi PhoP-promoter GFP reporter, fluorescence, 4 h. The experiment in a line: Inhibition of PhoP regulon, Salmonella typhi GFP reporter cells, confirmation, 4 h (AID 1850).
As for `COc1ccc(C(=O)N/N=C/c2sc3ccccc3c2O)cc1`, the 50% inhibitory concentration (IC50) – broadly, the midpoint of a concentration-inhibition curve – is 73.3 µM.

As to `C/C(=N\NC(=O)c1cccc(Br)c1)c1ccccn1`, the IC50 was 36.6 µM.

Turning to `Clc1ccc(OCCCNCc2ccccc2)c(Br)c1`, the IC50 is 37.6 µM.

Turning to `O=C1OCC(CO)(CO)N=C1NNc1ccc(Cl)c(Cl)c1`, the IC50 was 47.9 µM.

Regarding `O=C(CSc1ccccn1)N/N=C/c1cc([N+](=O)[O-])ccc1O`, the IC50 is 76.1 µM.

Take `Cc1cc([N+](=O)[O-])cc(/C=N/n2c(C)nc3ccccc3c2=O)c1O`: the IC50 was 77.2 µM.

As for `C#CCOCCOCCOCCNc1nc(N2CCN(C(=O)CCCCCCCCCCNC(=O)[C@H](CCCCN)n3cc(C)nn3)CC2)nc(N2CCN(C(=O)CCCCCCCCCCNC(=O)[C@H](CCCN=C(N)N)n3cc(C[C@@H](C)CC)nn3)CC2)n1`, the IC50 was 32.5 µM.

As for `CCn1cc(C(=O)O)c(=O)c2cc(F)c(N3CCN(S(=O)(=O)c4ccc(NC(C)=O)cc4)CC3)cc21`, the IC50 is 103 µM.

As to `Cc1cccc(NC2=NC3(CCCCC3)N=C(N)N2)c1`, the IC50 was 36.8 µM.

Take `Cc1cc(C)c(NC(=O)C[N+](C)(C)CC(O)COc2cccc3ccccc23)c(C)c1` (stereo not drawn): the IC50 is 46.3 µM.

For the compound `O=[N+]([O-])c1cc(/C=N/Nc2nc3ccccc3[nH]2)c(O)cc1O`, the IC50 is 19.3 µM.

Regarding `CN1CCN(CCCN2c3ccccc3Sc3ccc(Cl)cc32)CC1`, the IC50 is 56 µM and 34.7 µM.

For the compound `CC1(C)N=C(N)N=C(N)N1c1ccc(Oc2ccc(Cl)cc2)c(Cl)c1`, the IC50 was 33.8 µM.

Take `COc1ccc(S(=O)(=O)N2CN3CCN(C3)C2)cc1`: the IC50 is 144 µM.

Regarding `CN(C)CCCNc1cc(C(C)(C)C)nc2c(-c3ccccc3)cnn12`, the IC50 was 31.5 µM.

As for `CCc1cccc2c1Sc1ccccc1CC2N1CCNCC1` (stereo not drawn), the IC50 was 50.8 µM.

For `O=C(Nc1ccc(Cl)cc1)N1CCCN(Cc2ccccc2F)C1`, the IC50 is 34.9 µM.

With `Cc1cc(NC2CCCCC2)nc(NCc2ccccc2)n1`, the IC50 is 34.1 µM.

Take `Nc1nc(F)nc2c1ncn2[C@@H]1O[C@H](CO)[C@@H](O)[C@H]1O`: the IC50 is 32.9 µM.

Turning to `CN(C)CCCN1c2ccccc2CCc2ccc(Cl)cc21`, the IC50 was 102 µM.

Turning to `Cc1cccc(C(=O)NNC(=S)NC(=O)c2cccs2)c1`, the half-maximal inhibitory concentration (IC50) is 65.7 µM.

Regarding `CCn1cc(C(=O)O)c(=O)c2cc(F)c(N3CCN(C(=S)NC(=O)c4cccc(F)c4)CC3)cc21`, the IC50 was 18.6 µM.

Turning to `COc1ccc(/C=C/c2cc[n+](C(=O)Cc3ccccc3)cc2)cc1`, the IC50 was 118 µM.

On to `OC1CCCN(Cc2ccc3ccc4cccc5ccc2c3c45)C1` (stereo not drawn), for which the half-maximal inhibitory concentration (IC50) was 79.3 µM.

With `Cc1ccc2nc(N(CCCN(C)C)C(=O)c3ccc4c(c3)CCCC4)sc2c1`, the IC50 was 40.7 µM.

Turning to `Cc1cc(C)n(-c2nc(SCCN(C)C)c3c4c(sc3n2)CCCC4)n1`, the IC50 is 41.2 µM.

As for `CC(=O)OC1=C(O)C(=O)c2ccccc2C1=O`, the IC50 is 142 µM.

As for `Oc1c(CN2CCOCC2)cc(COCc2ccccc2)c2cccnc12`, the IC50 is 38.5 µM.

As to `O=C(Nc1nnc(-c2cccs2)o1)c1cccc(Oc2ccccc2)c1`, the IC50 was 61.1 µM.

As to `O=C(CCN1CCN(c2ccccc2)CC1)N/N=C/c1ccc([N+](=O)[O-])o1`, the IC50 is 138 µM.

Consider `N=c1c2c(n(Cc3ccc(Cl)cc3)c3c1CCC3)CCC2`, for which the IC50 was 80.3 µM.

For the compound `Nc1nnc(-c2cccc(Cl)c2Cl)c(N)n1`, the IC50 was 65.3 µM.

With `COc1cc(C)c(Cc2cnc(N)nc2N)cc1OC`, the concentration for half-maximal inhibition (IC50) was 2.88 µM.

On to `CN1CCN(C2=Cc3cc(Cl)ccc3Sc3cc(F)ccc32)CC1`, for which the IC50 is 45 µM.

For the compound `O=C(/C=C/c1cc(Br)ccc1O)c1ccco1`, the IC50 is 83.9 µM.

For `Nc1c(Cl)ncnc1N/N=C/c1ccccn1`, the IC50 was 33.7 µM.

Regarding `CNC[C@@H](CC1CCCCC1)NC[C@H](CC(C)C)NCCc1cccc(C(F)(F)F)c1`, the IC50 was 19.8 µM.

Turning to `C#CCOCCOCCOCCNc1nc(N2CCN(C(=O)[C@H](Cc3cc4ccccc4[nH]3)n3cc([C@@H](N)CC(C)C)nn3)CC2)nc(N2CCN(C(=O)[C@H](Cc3cc4ccccc4[nH]3)n3cc([C@@H](N)CC(C)C)nn3)CC2)n1`, the IC50 is 39.9 µM.

As to `COc1ccc2c(c1OC)C(=O)N(c1ccc(C)cc1)C2=O`, the IC50 is 143 µM.

Consider `NC(N)=N/N=C/c1ccc(OCc2ccc(Cl)cc2Cl)cc1`, for which the half-inhibitory concentration (IC50) is 18.4 µM.

On to `O=c1c2ccccc2[nH]c2ccc(F)cc12`, for which the IC50 is 75.7 µM.

With `O=C(Nc1nnc(C2COc3ccccc3O2)o1)c1ccc(F)cc1` (stereo not drawn), the IC50 is 36.5 µM.

On to `Oc1cccc(Nc2nc(NCC3CCCO3)c3ccccc3n2)c1` (stereo not drawn), for which the IC50 is 19.2 µM.

For the compound `Fc1ccccc1CSc1ccc(-c2ccco2)nn1`, the IC50 was 133 µM.

On to `CCN1CCCC1CNC(=O)C1CCN(Cc2nc(-c3cccc(Br)c3)oc2C)CC1` (stereo not drawn), for which the IC50 was 127 µM.

With `CN(C)CCCN1c2ccccc2Sc2ccc(Cl)cc21`, the 50% inhibitory concentration (IC50) is 68.6 µM and 39 µM.

Take `Oc1c(Br)cc(Br)cc1C=NCc1ccc(F)cc1`: the half-inhibitory concentration (IC50) is 57.4 µM.

Take `Cc1cc(NS(=O)(=O)c2ccc(NC(=O)Nc3cccc(Cl)c3)cc2)no1`: the IC50 is 148 µM.

As for `CCn1cc(C(=O)NCCN(C)C)c(=O)c2cc(F)c(N3CCN(C)CC3)cc21`, the half-maximal inhibitory concentration (IC50) is 23.2 µM.

On to `CCN(CCNCC(O)COc1ccccc1C(C)C)c1cccc(C)c1` (stereo not drawn), for which the half-inhibitory concentration (IC50) was 32.5 µM.

Consider `O=C(Cn1nc(C(F)F)cc1C(F)F)NNC(=S)Nc1ccc([N+](=O)[O-])cc1`, for which the IC50 is 139 µM.

Consider `CC(NCC(O)COc1ccc2ccccc2c1)c1ccccc1` (stereo not drawn), for which the IC50 is 79.8 µM.

On to `CN1C(=O)NC(c2ccc(O)cc2)C(C(=O)c2cccs2)C1(O)C(F)(F)F` (stereo not drawn), for which the IC50 is 38.1 µM.

For the compound `Cc1cc(C)c(OCCCCNCc2ccccc2)c(Cl)c1`, the half-inhibitory concentration (IC50) was 74.6 µM.

As for `CN(C)c1ccc2nc3ccc(=[N+](C)C)cc-3sc2c1`, the IC50 is 18.2 µM.

`Fc1ccc(Nc2nc(NCc3ccco3)c3ccccc3n2)cc1`: the IC50 is 3.81 µM.

Turning to `COc1ccc(OCc2n(CC(=O)OC3CC(C)CCC3C(C)C)c3ccccc3[n+]2C)cc1` (stereo not drawn), the IC50 was 48.9 µM.

As to `CC(C)N1CSC(=S)N(Cc2ccccc2)C1`, the IC50 is 108 µM.

As for `CN1CCN(C(c2ccc(C(F)(F)F)cc2)c2ccc3cccnc3c2O)CC1` (stereo not drawn), the IC50 is 20 µM.

Consider `Cc1ccccc1S(=O)(=O)NNC(=O)C(=O)NNc1ccccn1`, for which the IC50 is 74.3 µM.

In the case of `CCCCCCCSc1cc(OC)c(CCN(C)C)cc1OC`, the IC50 was 35.7 µM.

`Cc1c(CN(C)C)c2c(n1Cc1ccccc1)C(=O)c1ccc(Br)cc1-2`: the IC50 was 76.5 µM.

In the case of `Clc1cccc(/C=N\Nc2nccs2)c1`, the IC50 was 18.6 µM.

Consider `CCCCc1ccc(N/C(N)=N/c2nc(C)cc(C)n2)cc1`, for which the half-inhibitory concentration (IC50) was 77.8 µM.

`NC1=NC[C@H](Cc2ccc(O)cc2)N1CCc1cccc2ccccc12`: the IC50 was 50.2 µM.

In the case of `CCOC(=O)c1ccc(CNCc2ccc(Br)cc2)cc1`, the IC50 is 78.5 µM.

With `CN(C)c1ccc(/C=C/c2ccc3ccccc3[n+]2C)cc1`, the IC50 was 18.7 µM.

As for `O=c1cc(-c2ccc(O)cc2)oc2c(O)c(O)c(O)c(O)c12`, the IC50 was 35.6 µM.

For the compound `Cc1c(Cl)cccc1Nc1nc(NCCO)c2ccccc2n1`, the IC50 is 10.8 µM.

As for `CCN1/C(=C/C(C)=C/c2sc3ccccc3[n+]2CC)Sc2ccccc21`, the IC50 is 4.88 µM.

For `Cc1ccc(O)c(Nc2c3ccccc3nc3ccccc23)c1`, the IC50 was 27.7 µM.

In the case of `O=C(O)c1sccc1Oc1ccc(F)cc1[N+](=O)[O-]`, the IC50 was 88.7 µM.

As to `C#CCOCCOCCOCCNc1nc(N2CCN(C(=O)CCCCCCCCCCNC(=O)[C@H](CCCCN)n3cc(C)nn3)CC2)nc(N2CCN(C(=O)CCCCCCCCCCNC(=O)[C@@H]([C@H](C)CC)n3cc(CCCCCN)nn3)CC2)n1`, the concentration for half-maximal inhibition (IC50) was 33 µM.

For `OCCNc1nc(Nc2ccccc2)nc2ccccc12`, the IC50 is 10.2 µM.

`CN(C)CCCN(C(=O)c1ccc2c(c1)CCCC2)c1nc2ccc(Cl)cc2s1`: the half-maximal inhibitory concentration (IC50) was 83.7 µM.

On to `O=C(O)/C(=C\C(=O)c1ccccc1)Nc1ccccc1`, for which the half-maximal inhibitory concentration (IC50) is 39.4 µM.

On to `NC1=NC2(CCCCC2)N=C(Nc2ccc(Br)cc2)N1`, for which the IC50 is 12.7 µM.

For `O=C(Nc1cccc(N=Cc2cc(Cl)cc(Br)c2O)c1)c1ccco1`, the IC50 is 96.9 µM.

Take `CC(=O)NC(c1ccc(Cl)cc1Cl)c1ccc2cccnc2c1O` (stereo not drawn): the 50% inhibitory concentration (IC50) is 95.5 µM.

With `CCCNC(=O)c1cn(CC)c2cc(N3CCN(C)CC3)c(F)cc2c1=O`, the IC50 was 13.4 µM.

Turning to `c1ccc(Nc2nc(NCc3ccco3)c3ccccc3n2)cc1`, the IC50 is 5.97 µM.

As for `CN1CCN(c2c(F)cc3c(=O)c(C(=O)O)cn4c3c2OCN4C)CC1`, the IC50 was less than 0.23 µM.

In the case of `COc1c2ccccc2nc2ccccc12`, the IC50 is 25.6 µM.

Turning to `CO[C@H]1/C=C/O[C@@]2(C)Oc3c(C)c(O)c4c(O)c(c(C=NN5CCN(C)CC5)c(O)c4c3C2=O)NC(=O)/C(C)=C\C=C\[C@H](C)[C@H](O)[C@@H](C)[C@@H](O)[C@@H](C)[C@H](OC(C)=O)[C@@H]1C`, the IC50 was 9.7 µM.

With `O=C(Nc1c(Cl)ccc2nsnc12)c1ccc([N+](=O)[O-])o1`, the IC50 is 91.4 µM.

Take `O=Nc1ccc(O)c2ncccc12`: the IC50 is 17.8 µM.

As for `Cc1[nH]cnc1C(=O)N/N=C/c1ccc([N+](=O)[O-])s1`, the IC50 is 20.4 µM.

Regarding `COc1ccc(/C=C/C(=O)NC(=S)NNC(=O)c2cnccn2)cc1`, the IC50 was 49.8 µM.

For `COc1ccc(/C=N/Nc2cc(C)nc3c(C)cccc23)cc1`, the concentration for half-maximal inhibition (IC50) was 19.3 µM.

For the compound `CCn1cc(C(=O)NCC(C)C)c(=O)c2cc(F)c(N3CCN(C)CC3)cc21`, the IC50 was 14.9 µM.

For the compound `COc1cccc(Nc2cc(C)nc3ccccc23)c1`, the IC50 is 69.6 µM.

`Clc1ccc(C(c2ccc(Cl)cc2)n2cc[n+](CC(OCc3ccc(Cl)cc3Cl)c3ccc(Cl)cc3Cl)c2)cc1` (stereo not drawn): the 50% inhibitory concentration (IC50) was 10.5 µM.

With `Clc1cccc(CN2CCc3c([nH]c4ccccc34)C2)c1Cl`, the IC50 is 76.5 µM.

`CCCCCCCCCCOC(=O)Cn1c(COc2cccc(OC)c2)[n+](C)c2ccccc21`: the IC50 is 12.7 µM.

In the case of `CCC(C)(C)c1ccc(OCCCC[n+]2ccccc2)c(C(C)(C)CC)c1`, the IC50 is 19.2 µM.

For the compound `O=C(C[n+]1cc(-c2ccccc2)n2c1CCC2)Nc1nc(-c2ccc(F)cc2)cs1`, the IC50 was 38.7 µM.

As to `O=C(Nc1ccc(Cc2ccncc2)cc1)c1ccc([N+](=O)[O-])o1`, the 50% inhibitory concentration (IC50) is 80.3 µM.

For `Nc1nc(Nc2cccc(F)c2)nc2ccccc12`, the IC50 was 22.9 µM.
